Measurements taken from article PMC3846386 (Journal of medicinal chemistry, 2013).

Tests used:
L3MBTL3 = molecular target: T1, L3MBTL3 (Homo sapiens, UniProt Q96JM7); test: AlphaScreen competition assay; conditions: in words
T1 sequence (Q96JM7 1-780): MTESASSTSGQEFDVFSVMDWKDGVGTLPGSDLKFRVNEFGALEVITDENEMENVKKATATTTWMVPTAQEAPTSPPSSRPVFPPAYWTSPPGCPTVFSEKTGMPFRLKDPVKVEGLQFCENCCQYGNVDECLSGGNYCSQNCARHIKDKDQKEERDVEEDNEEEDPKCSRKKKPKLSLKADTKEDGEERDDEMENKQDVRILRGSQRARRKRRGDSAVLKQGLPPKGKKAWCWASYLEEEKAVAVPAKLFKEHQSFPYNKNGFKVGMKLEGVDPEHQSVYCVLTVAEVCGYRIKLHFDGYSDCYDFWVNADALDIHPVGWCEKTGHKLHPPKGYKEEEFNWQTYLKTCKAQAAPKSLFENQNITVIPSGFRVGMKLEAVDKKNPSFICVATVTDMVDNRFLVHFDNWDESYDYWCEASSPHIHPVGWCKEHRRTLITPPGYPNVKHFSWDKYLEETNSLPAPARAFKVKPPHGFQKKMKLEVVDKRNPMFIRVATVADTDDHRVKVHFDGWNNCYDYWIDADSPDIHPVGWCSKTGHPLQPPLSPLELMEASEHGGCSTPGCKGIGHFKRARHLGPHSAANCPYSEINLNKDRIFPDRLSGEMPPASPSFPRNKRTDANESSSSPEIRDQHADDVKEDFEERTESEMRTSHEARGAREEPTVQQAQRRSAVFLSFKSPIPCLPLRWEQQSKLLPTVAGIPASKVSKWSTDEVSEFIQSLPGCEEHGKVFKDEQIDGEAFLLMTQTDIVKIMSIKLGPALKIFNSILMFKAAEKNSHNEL

endogenous L3MBTL3 = molecular target: T2, endogenous L3MBTL3 (Homo sapiens, UniProt Q96JM7); test: Biotin-1 pull-down; assay type: binding; conditions: G-401 cell lysates, Western analysis
T2 sequence (Q96JM7 1-780): T1 sequence (Q96JM7 1-780)

L3MBTL1 = molecular target: T3, L3MBTL1 (Homo sapiens, UniProt Q9Y468); test: Isothermal titration calorimetry; assay type: binding; conditions: in words
T3 sequence (Q9Y468 1-772 isoform Q9Y468-1): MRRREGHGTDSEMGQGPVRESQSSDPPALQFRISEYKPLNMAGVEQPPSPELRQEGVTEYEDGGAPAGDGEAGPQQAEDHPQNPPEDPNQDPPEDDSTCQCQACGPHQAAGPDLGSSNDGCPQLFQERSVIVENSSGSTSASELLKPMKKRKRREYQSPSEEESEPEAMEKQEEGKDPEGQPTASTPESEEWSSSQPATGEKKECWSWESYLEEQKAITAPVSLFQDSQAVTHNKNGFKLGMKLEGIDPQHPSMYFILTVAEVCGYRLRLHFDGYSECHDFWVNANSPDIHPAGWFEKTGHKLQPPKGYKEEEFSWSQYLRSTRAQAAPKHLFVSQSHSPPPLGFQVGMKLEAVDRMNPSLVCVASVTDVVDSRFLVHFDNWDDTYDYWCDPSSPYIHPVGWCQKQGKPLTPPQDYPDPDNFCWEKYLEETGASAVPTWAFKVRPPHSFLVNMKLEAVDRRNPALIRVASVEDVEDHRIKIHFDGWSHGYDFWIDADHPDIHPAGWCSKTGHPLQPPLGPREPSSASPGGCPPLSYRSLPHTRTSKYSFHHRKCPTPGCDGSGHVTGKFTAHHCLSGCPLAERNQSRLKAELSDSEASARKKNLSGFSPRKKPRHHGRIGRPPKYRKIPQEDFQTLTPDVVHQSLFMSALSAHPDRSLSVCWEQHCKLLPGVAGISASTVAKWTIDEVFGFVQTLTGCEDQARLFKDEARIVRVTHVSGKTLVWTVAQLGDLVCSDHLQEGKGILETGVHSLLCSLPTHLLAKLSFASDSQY

[1] = CellTiter-Glo luminescent cell viability assay; assay type: cell-based
[2] = molecular target: T4, GFP-FLMBT (GFP fusion of full-length L3MBTL3) (Homo sapiens, UniProt Q96JM7); test: Displacement of mero76-1 from GFP-FLMBT in HEK293 cells; assay type: cell-based
T4 sequence (Q96JM7 1-780): T1 sequence (Q96JM7 1-780)

[3] = test system: GFP fusion protein containing the three MBT domains of L3MBTL3 (GFP-3MBT); conditions: read-out: EC50, effect on subnuclear localization of GFP-3MBT; cells; cited from earlier work

O=C(c1cccc(Br)c1)N1CCC(N2CCCC2)CC1 [Compound 57]
change in affinity for L3MBTL1 L361F relative to wildtype L3MBTL1 by ITC (L3MBTL1 L361F): ≤ 2 fold
binding to L3MBTL3 versus L3MBTL1 (L3MBTL3): equally well

O=C(c1ccc(C(=O)N2CCC(N3CCCCC3)CC2)cc1)N1CCC(N2CCCCC2)CC1 [Compound 37]
competition with biotin-1 for binding to endogenous L3MBTL3 (endogenous L3MBTL3): failed to compete for binding to endogenous L3MBTL3

O=C(c1ccc(C(=O)N2CCC(N3CCCC3)CC2)c(NCc2ccccc2)c1)N1CCC(N2CCCC2)CC1 [Compound 49]
affinity for L3MBTL1 by follow-up ITC (L3MBTL1): micromolar affinity

CCN1Cc2ccc(NC(=O)c3ccc(C(=O)N4CCC(C5CCCN5)CC4)cc3)cc2C1 (centres unmarked) [Compound 2]
cytotoxicity, no observable level up to [1]: > 100 µM

O=C(c1ccc(C(=O)N2CCC(N3CCCC3)CC2)c(Nc2ccccc2)c1)N1CCC(N2CCCC2)CC1 [Compound 1]
competition with biotin-1 for binding to endogenous L3MBTL3 (endogenous L3MBTL3): competed off with soluble 1
displacement of mero76-1 from GFP-L3MBTL3 ([2]; 1 equivalent relative to mero76-1): displace mero76-1 from GFP-L3MBTL3
displacement of mero76-1 from GFP-FLMBT ([2]; 1 or 5 equivalents relative to mero76-1 (both concentrations)): largely displaces mero76-1 from GFP-FLMBT
cytotoxicity, no observable level up to [1]: > 100 µM
EC50 [3]: ~0.5 µM

O=C(c1ccc(C(=O)N2CCC(N3CCCC3)CC2)cc1)N1CCC(N2CCCC2)CC1 [Compound 5]
cytotoxicity, no observable level up to [1]: > 100 µM
